Literature values in patent US20230041138A1, “TREATMENT OF HIS HYPORESPONDERS” (NewAmsterdam Pharma B.V. (Dutch Registration No. 55971946), priority 2021, published 2023).

Tested on: LDL-C
Details: rosuvastatin 20 mg; cited from earlier work

Structure (SMILES): CC(C)c1nc(N(C)S(C)(=O)=O)nc(-c2ccc(F)cc2)c1/C=C/[C@@H](O)C[C@@H](O)CC(=O)O [rosuvastatin]
- median LDL-C lowering response: 50%
- share of patients with LDL-C reduction <50%: 43%
